Consider 4 compounds from patent EP3056202A1, “BENZOPYRROLIDONE DERIVATIVES POSSESSING ANTIVIRAL AND ANTICANCER PROPERTIES” (Max-Planck-Gesellschaft zur Förderung der Wissenschaften …, priority 2015, dated 2016).

Structures are written as SMILES. Converted amounts (≈) assume the structure as drawn.

By EC50 is commonly meant the concentration at which the effect is half-maximal. As usually defined, the solubility is the concentration that dissolves in the medium under given conditions. Read a low solubility as little dissolved substance. Broadly, the IC50 is the concentration needed to halve the response being measured.

One data set addresses human Ack1 kinase (Homo sapiens, UniProt Q07912). The experiment in a line: In vitro Ack1 assay (TranScreener ADP2 FP, generation of ADP). The class given is biochemical. As to conditions: 12.5 uM compound; 3.5 µM ATP; read-out: Ack1 inh% @12.5 uM. How it is done: The activity of the compounds described in the present invention can be determined by the following kinase assay, which measures the generation of ADP by human Ack1 kinase by fluorescent polarization using a commercially available TranScreener ADP2 FP Assay Kit (BellBrook Labs).
Ack1 kinase assays were performed in low protein binding 384-well plates (Corning). Test compounds were diluted in 100% DMSO to 5 mM stock concentration and then further dilutions were made in H2O or 100% DMSO to desirable concentrations.
Each reaction consisted of 5 nM enzyme: Ack1 kinase, Poly Glu-Tyr (4:1) (Sigma), 3.5 µM ATP and kinase buffer: 20 mM HEPES pH7.5, 1 mM DTT, 2 mM MgCl2, 0.4 mM MnCl2, 0.01 V/V% Tween20 (all reagents from Sigma-Aldrich)
For each reaction, 4 or 6 µl containing Poly Glu-Tyr (4:1), ATP and kinase buffer were combined with 2 µl diluted compound in H2O or 0.02 µl compound in 100% DMSO. The kinase reaction was started by the addition of 2 µl diluted enzyme. The reaction was allowed to run for 1 hour at room temperature. The reaction was stopped by addition of 8 µl ADP detection mixture (1 x) (1 x Detection buffer + 4.78 µg/ml ADP2 Ab + 4 nM ADP Alexa633 Tracer). After an additional hour, fluorescent polarization (Ex: 630-35 nm, Em: 680-30 nm, Dich: 650 nm) was measured using an Analyst GT (Molecular Devices).

Data set [1] relates to HKE3 human colon carcinoma cell line. The experiment in a line: In vitro growth inhibition of colon carcinoma cells, HKE3 (CellTiter-Glo). Format: cell-based. Particulars: 72 hours incubation. In general terms: In ATP-based viability assays light output follows the ATP content of the culture.
The next data set in a line: physchem. Format: physicochemical. As to conditions: kinetic from dmso stock. How it is done: Samples were diluted in DMSO (control), phosphate buffer pH = 7.4 and pH = 2.0, from 5mM stock solutions (solved in DMSO), with a 120 µM final concentration. The samples were incubated for 24 hours at room temperature followed by 30 minutes centrifugation at 3700 rpm. 40 µl of the supernatants were injected into HPLC (Waters 2795 Alliance HPLC equipped with Waters 996 PDA Detector (HPLC column: Waters XBridge, RP C18, 3.5 µm, 4.6 mm x 50 mm; gradient MeCN/H2O, containing 0.1% HCOOH: 5% MeCN (0.5 min), 5% to 95% MeCN (5 min), 95% MeCN (0.5 min); flow rate: 2.0 ml/min)) and the AUC values (measured on sample specific wavelength) of the buffered samples were divided by the AUC values (same wavelength as buffered samples') of the DMSO control samples. Table 3: Solubility in water for several compounds according to general formula (I)

Data set [2] deals with H1 N1 influenza virus strain A/WSN/33. Description: microbe, parasite or virus in culture. Format: cell-based. Particulars: 36 h, read-out: Influenza replication IC50.
Data set [3] relates to A549 human lung carcinoma cells. Description: Cell-based EC50 determination, A549 cells (CellTiter-Glo cell viability). Particulars: A549, 24 h, read-out: A549 EC50 24h. How it is done:
A549 human lung carcinoma cells were cultured in RPMI 1640 medium (Sigma) supplemented with 10% fetal bovine serum (Sigma) and Antibiotic-Antimycotic (Sigma) in tissue culture flasks at 37°C in a humidified 5% CO2 atmosphere. Cells were routinely assayed for mycoplasma contamination.
Two thousand cells were plated in 384-well tissue culture plates, and treated after 24 hours with a 10-point dilution series of the compounds (1.5 nM-30 uM), using the vehicle, DMSO as control. Cells were incubated for 24 hours after which the relative cell density was determined by CellTiter-Glo Luminescent Cell Viability Assay (Promega). This method determines the number of metabolically active cells in the culture based on quantitation of the ATP present. The luminescent signal was measured with an Analyst GT multimode reader (Molecular Devices). […]

Another data set addresses human Akt1 kinase (Homo sapiens, UniProt P31749). The experiment in a line: In vitro Akt1 assay (IMAP fluorescence polarization, phosphorylation of TAMRA-peptide). Format: biochemical. As to conditions: 40 µM ATP; for inhibition at 12.5 µM: 12.5 uM compound, read-out: Akt1 inh% @12.5 uM. How it is done: The inhibition of Akt1 by the compounds described in the present invention were determined measuring the phosphorylation of a fluorescently-labeled peptide (TAMRA-peptide) by human Akt1 kinase by fluorescent polarization using a commercially available IMAP Screening Express Assay Kit (Molecular Devices).
Akt1 kinase assays were performed in low protein binding 384-well plates (Corning). Test compounds were diluted in 100% DMSO to 5 mM stock concentration and then further dilutions were made in H2O or 100% DMSO to desirable concentrations.
Each reaction consisted of 5 nM enzyme: Akt1 kinase, 400 nM TAMRA-peptide (5-TAMRA-GRTGRRNSI-COOH; Genecust), 40 µM ATP and kinase buffer: 20 mM MES pH6, 1 mM DTT, 10 mM MgCl2, 2 mM MnCl2, 0.01 V/V% TritonX (all reagents from Sigma-Aldrich).
For each reaction, 4 or 6 µl containing TAMRA-peptide, ATP and kinase buffer were combined with 2 µl diluted compound in H2O or 0.02 µl compound in 100% DMSO. The kinase reaction was started by the addition of 2 µl diluted enzyme. The reaction was allowed to run for 1 hour at room temperature. The reaction was stopped by adding 15 µl IMAP beads (1:400 beads in progressive (75% buffer A, 25% buffer B) 1x buffer). After an additional hour, fluorescent polarization (Ex: 550-10 nm, Em: 590-10 nm, Dich: 561 nm) was measured using an Analyst GT (Molecular Devices).

The test system of data set [4] is HCT-116 human colon carcinoma cell line. Description: In vitro growth inhibition of colon carcinoma cells, HCT-116 (CellTiter-Glo). Format: cell-based. Particulars: 72 hours incubation, read-out: HCT116 EC50.
The next data set deals with T1, human Clk1 kinase (Homo sapiens, UniProt P49759).
T1 construct: Each reaction consisted of 4 nM enzyme: Clk1 kinase domain
T1 sequence (P49759 161-477 limits assumed): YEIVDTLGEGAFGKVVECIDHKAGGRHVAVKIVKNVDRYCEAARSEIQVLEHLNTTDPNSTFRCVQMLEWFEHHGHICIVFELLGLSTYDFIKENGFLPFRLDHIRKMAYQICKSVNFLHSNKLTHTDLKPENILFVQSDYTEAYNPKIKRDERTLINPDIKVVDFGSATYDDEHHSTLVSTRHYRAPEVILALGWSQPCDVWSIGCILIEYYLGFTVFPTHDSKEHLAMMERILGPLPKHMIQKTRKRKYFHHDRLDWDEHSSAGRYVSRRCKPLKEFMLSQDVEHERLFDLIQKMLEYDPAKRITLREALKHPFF
Description: In vitro Clk1 assay (IMAP fluorescence polarization). Format: biochemical. As to conditions: 0.45 µM ATP. How it is done: The activity of the compounds described in the present invention can be determined by the following kinase assay, which measures the phosphorylation of a fluorescently-labeled peptide by human Clk1 kinase by fluorescent polarization using a commercially available IMAP Screening Express Assay Kit (Molecular Devices).
Clk1 kinase assays were performed in low protein binding 384-well plates (Corning). Test compounds were diluted in 100% DMSO to 5 mM stock concentration and then further dilutions were made in H2O or 100% DMSO to desirable concentrations.
Each reaction consisted of 4 nM enzyme: Clk1 kinase domain, 400 nM TAMRA-AFRREWSPGKEAKK-NH2 (Genecust), 0.45 µM ATP (Sigma) and kinase buffer: 20 mM TRIS pH 8, 1 mM DTT, 0.4 mM MgCl2, 0.4 mM MnCl2, 0.01 V/V% Tween20 (all reagents from Sigma-Aldrich)
For each reaction, 4 or 6 µl containing TAMRA-peptide, ATP and kinase buffer were combined with 2 µl diluted compound in H2O or 0.02 µl compound in 100% DMSO. The kinase reaction was started by the addition of 2 µl diluted enzyme. The reaction was allowed to run for 1 hour at room temperature. The reaction was stopped by adding 15 µl IMAP beads (1:600 beads in progressive (80 % buffer A, 20% buffer B) 1x buffer). After an additional hour, fluorescent polarization (Ex: 550-10 nm, Em: 590-10 nm, Dich: 561 nm) was measured using an Analyst GT (Molecular Devices).
For orientation: In fluorescence polarisation assays a small probe gives low polarisation when free and higher when bound to something large.

In data set [5] the test system is HepG2 hepatoblastomaderived cell line. The experiment in a line: In vitro growth inhibition, HepG2 (CellTiter-Glo). The class given is cell-based. As to conditions: Homo sapiens, 72 hours incubation.

human Ack1 kinase, sequence (Q07912 whole entry): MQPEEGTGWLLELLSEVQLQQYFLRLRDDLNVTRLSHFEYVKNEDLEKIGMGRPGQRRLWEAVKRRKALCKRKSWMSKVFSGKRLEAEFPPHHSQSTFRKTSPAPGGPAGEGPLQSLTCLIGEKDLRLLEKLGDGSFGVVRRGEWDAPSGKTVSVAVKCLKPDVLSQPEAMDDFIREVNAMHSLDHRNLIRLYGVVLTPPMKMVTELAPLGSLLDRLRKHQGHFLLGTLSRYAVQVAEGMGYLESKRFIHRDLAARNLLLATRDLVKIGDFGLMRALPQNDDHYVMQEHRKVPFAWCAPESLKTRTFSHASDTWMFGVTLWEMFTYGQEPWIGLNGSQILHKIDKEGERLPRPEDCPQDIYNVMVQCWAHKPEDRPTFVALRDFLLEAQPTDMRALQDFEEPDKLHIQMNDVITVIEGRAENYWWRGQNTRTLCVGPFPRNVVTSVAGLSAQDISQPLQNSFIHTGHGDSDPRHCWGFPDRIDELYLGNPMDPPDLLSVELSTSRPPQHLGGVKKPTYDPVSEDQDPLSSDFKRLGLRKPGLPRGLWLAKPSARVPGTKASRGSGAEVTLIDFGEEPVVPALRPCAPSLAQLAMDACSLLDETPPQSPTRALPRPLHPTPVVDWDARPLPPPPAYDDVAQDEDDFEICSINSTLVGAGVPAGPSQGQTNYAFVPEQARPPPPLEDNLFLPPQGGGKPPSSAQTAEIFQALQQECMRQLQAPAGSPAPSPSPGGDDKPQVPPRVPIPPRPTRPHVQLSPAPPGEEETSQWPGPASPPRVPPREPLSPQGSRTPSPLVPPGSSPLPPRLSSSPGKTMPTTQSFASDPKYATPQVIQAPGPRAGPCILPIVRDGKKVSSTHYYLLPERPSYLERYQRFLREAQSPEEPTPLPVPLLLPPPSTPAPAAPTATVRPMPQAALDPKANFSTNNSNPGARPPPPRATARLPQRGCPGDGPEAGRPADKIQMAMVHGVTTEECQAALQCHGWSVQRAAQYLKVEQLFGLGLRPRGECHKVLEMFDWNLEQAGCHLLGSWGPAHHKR
human Akt1 kinase, sequence (P31749 whole entry): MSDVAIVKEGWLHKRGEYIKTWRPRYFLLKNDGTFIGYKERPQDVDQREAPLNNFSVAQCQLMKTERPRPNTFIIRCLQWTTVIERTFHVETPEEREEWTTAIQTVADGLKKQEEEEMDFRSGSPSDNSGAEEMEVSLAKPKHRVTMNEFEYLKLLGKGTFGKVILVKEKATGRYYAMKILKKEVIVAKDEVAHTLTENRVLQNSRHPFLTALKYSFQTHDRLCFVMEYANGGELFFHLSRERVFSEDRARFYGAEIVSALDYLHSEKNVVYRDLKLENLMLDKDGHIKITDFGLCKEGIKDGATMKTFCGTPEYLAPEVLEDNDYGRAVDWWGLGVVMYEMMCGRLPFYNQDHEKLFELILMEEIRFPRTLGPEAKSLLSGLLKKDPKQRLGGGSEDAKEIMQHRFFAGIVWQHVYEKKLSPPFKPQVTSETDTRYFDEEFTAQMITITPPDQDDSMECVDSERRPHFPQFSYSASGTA

Regarding `C[C@@H](NC(=O)c1ccc2c(c1)/C(=C(/Nc1ccc(CN3CCCCC3)cc1)c1ccccc1)C(=O)N2)c1ccc(F)cc1` [Compound 23, (3Z)-N-[(1R)-1-(4-fluorophenyl)ethyl]-2-oxo-3-(phenyl{[4-(piperidin-1-ylmethyl)phenyl]amino}methylene)indoline-5-carboxamide], the results for the inhibition at 12.5 µM at human Ack1 kinase and at human Akt1 kinase were 91.1% and 92.1%, respectively. Moreover, the EC50 in data set [1] came out at 0.04 µM; in data set [3], 15.3 µM; in data set [4] it was 0.04 µM; in [5], 0.92 µM. Further, the solubility at 24 h in the data set “physchem” (pH 2, aqueous buffer) is 110 to 120 µM (≈ 63.2 to 69 µg/mL); in the data set “physchem” (pH 7.4, aqueous buffer), below 10 µM. For the same compound, the IC50 is below 0.01 µM in data set [2], 0.18 µM on human Akt1 kinase and 0.02 µM against human Clk1 kinase.

Take `COc1cccc([C@@H](C)NC(=O)c2ccc3c(c2)/C(=C(/Nc2cccc(CN4CCCCC4)c2)c2ccccc2)C(=O)N3)c1` [Compound 24, (3Z)-N-[(1R)-1-(3-methoxyphenyl)ethyl]-2-oxo-3-(phenyl{[3-(piperidin-1-ylmethyl)phenyl]amino}methylene)indoline-5-carboxamide]: the inhibition at 12.5 µM at human Ack1 kinase is 13.7%; at human Akt1 kinase it was 76.8%. Also, the EC50 in data set [1] came to 0.29 µM; in [3], 11.8 µM; in data set [4] it was 0.38 µM; in data set [5], 6.09 µM. Moreover, the solubility at 24 h in the data set “physchem” (pH 2, aqueous buffer) was 110 to 120 µM (≈ 64.5 to 70.4 µg/mL); in the data set “physchem” (pH 7.4, aqueous buffer), below 10 µM. Moreover, the IC50 was determined as 0.42 µM in data set [2], 0.88 µM against human Akt1 kinase and 0.08 µM at human Clk1 kinase.

As for `Cc1ccc([C@@H](C)NC(=O)c2ccc3c(c2)/C(=C(/Nc2cccc(CN4CCCCC4)c2)c2ccccc2)C(=O)N3)cc1` [Compound 27, (3Z)-N-[(1R)-1-(4-methylphenyl)ethyl]-2-oxo-3-(phenyl{[3-(piperidin-1-ylmethyl)phenyl]amino}methylene)indoline-5-carboxamide], the inhibition at 12.5 µM at human Ack1 kinase amounted to 9.9%; on human Akt1 kinase, 81.3%. For the same compound, the EC50 amounted to 1.32 µM in [1], 25.4 µM in data set [3], 1.41 µM in data set [4] and 5.24 µM in [5]. Moreover, the solubility at 24 h was 110 to 120 µM (≈ 62.8 to 68.5 µg/mL) in “physchem” (pH 2, aqueous buffer) and below 10 µM in the data set “physchem” (pH 7.4, aqueous buffer). For the same compound, the IC50 in [2] came to 2.46 µM; against human Akt1 kinase, 2.96 µM; at human Clk1 kinase, 0.2 µM.

Consider `C[C@H](NC(=O)c1ccc2c(c1)/C(=C(/Nc1ccc(CN3CCCCC3)cc1)c1ccccc1)C(=O)N2)c1ccccc1` [Compound 30, (3Z)-2-oxo-N-[(1S)-1-phenylethyl]-3-(phenyl{[4-(piperidin-1-ylmethyl)phenyl]amino}methylene)indoline-5-carboxamide], for which the results for the inhibition at 12.5 µM on human Ack1 kinase and at human Akt1 kinase were 80.5% and 93%, respectively. Further, the EC50 came to 0.01 µM in data set [1], 5.98 µM in data set [3], 0.01 µM in [4] and 0.58 µM in data set [5]. Besides, the solubility at 24 h was 110 to 120 µM (≈ 61.2 to 66.8 µg/mL) in “physchem” (pH 2, aqueous buffer) and below 10 µM in “physchem” (pH 7.4, aqueous buffer). Moreover, the IC50 in data set [2] is below 0.01 µM; against human Akt1 kinase, 1.3 µM; on human Clk1 kinase it was 0.01 µM.
